Experimental data from PMC11995216, “End-to-End Backbone Cyclization Enhances Passive Permeability of bRo5 Oligomeric Depsipeptides with Nonlinear Size Dependence” (ACS Medicinal Chemistry Letters, 2025).
Where “and” joins values, the source holds several entries; their conditions need not be identical. Equal entries are not always repeated. Where two headings read alike, the source gives them in different places.

Key:
[1] = calculated using Supplement Equation 1, UV detection
[2] = UV detection
[3] = in vitro; conditions: PAMPA
[4] = test system: PAMPA; conditions: UV detection
[5] = initial concentration 500 uM, standard curve, UV detection
[6] = test system: PAMPA; conditions: UV detection, initial concentration 500 uM
[7] = initial concentration 500 uM, standard curve, UV detection; remark: listed apart in the source
[8] = PAMPA, 500 uM

CCCCC[C@H](OC(=O)[C@@H](C)N(C)C(=O)[C@H](CCCCC)OC(=O)[C@@H](C)N(C)C(=O)OC(C)(C)C)C(=O)OCc1ccccc1 [Compound L1.2]
%T ([1]; Well 1 / %T, Well 1): 0.43% and 0.47% | %T ([1]; Well 2 / %T, Well 2): 0.48% and 0.46% | %T ([1]; Well 3 / %T, Well 3): 0.48% and 0.47% | %T ([1]; Well 4 / %T, Well 4): 0.48% and 0.49% | %T ([1]; Well 5 / %T, Well 5): 0.5% and 0.49% | % recovery ([2]; Well 1 / %R, Well 1): 93% | % recovery ([2]; Well 2 / %R, Well 2): 96% | % recovery ([2]; Well 3 / %R, Well 3): 85% and 90% | % recovery ([2]; Well 4 / %R, Well 4): 84% and 85% | % recovery ([2]; Well 5 / %R, Well 5): 82% | Papp at 500 uM ([3]; LogPapp): 1.82 ×10⁻⁶ cm/s | Papp at 500 uM ([3]; Papp): 3.44 ± 0.33 ×10⁻⁶ cm/s | Papp ([4]; Papp (x 10^-6 cm/s) / experiment 1): 3.2 ×10⁻⁶ cm/s | Papp ([4]; Papp (x 10^-6 cm/s) / experiment 2): 3.8 ×10⁻⁶ cm/s | Papp ([4]; Papp (x 10^-6 cm/s) / experiment 3): 3.8 ×10⁻⁶ cm/s | Papp ([4]; Papp (x 10^-6 cm/s) / experiment 4): 3.7 ×10⁻⁶ cm/s | Papp ([4]; Papp (x 10^-6 cm/s) / experiment 5): 3.9 ×10⁻⁶ cm/s | Papp ([4]; Papp (x 10^-6 cm/s) / experiment 6): 3.4 ×10⁻⁶ cm/s | Papp ([4]; Papp (x 10^-6 cm/s) / experiment 7): 3.9 ×10⁻⁶ cm/s | Papp ([4]; Papp (x 10^-6 cm/s) / experiment 8): 3.3 ×10⁻⁶ cm/s | Papp ([4]; Papp (x 10^-6 cm/s) / experiment 9): 3.7 ×10⁻⁶ cm/s | Papp ([4]; Papp (x 10^-6 cm/s) / experiment 10): 3.6 ×10⁻⁶ cm/s | donor concentration after incubation ([5]; Well 1 / [donor], Well 1): 391 µM and 364 µM | donor concentration after incubation ([5]; Well 2 / [donor], Well 2): 361 µM and 396 µM | donor concentration after incubation ([5]; Well 3 / [donor], Well 3): 348 µM and 368 µM | donor concentration after incubation ([5]; Well 4 / [donor], Well 4): 345 µM and 348 µM | donor concentration after incubation ([5]; Well 5 / [donor], Well 5): 331 µM and 358 µM | Acceptor Concentration ([6]; Acceptor Concentration (uM) / experiment 1): 72 µM | Acceptor Concentration ([6]; Acceptor Concentration (uM) / experiment 2): 80.6 µM | Acceptor Concentration ([6]; Acceptor Concentration (uM) / experiment 3): 77.4 µM | Acceptor Concentration ([6]; Acceptor Concentration (uM) / experiment 4): 75.2 µM | Acceptor Concentration ([6]; Acceptor Concentration (uM) / experiment 5): 77.1 µM | Acceptor Concentration ([6]; Acceptor Concentration (uM) / experiment 6): 90.3 µM | Acceptor Concentration ([6]; Acceptor Concentration (uM) / experiment 7): 86.9 µM | Acceptor Concentration ([6]; Acceptor Concentration (uM) / experiment 8): 80.4 µM | Acceptor Concentration ([6]; Acceptor Concentration (uM) / experiment 9): 87.3 µM | Acceptor Concentration ([6]; Acceptor Concentration (uM) / experiment 10): 83.7 µM | acceptor concentration after incubation ([7]; Well 1 / [acc], Well 1): 77 µM | acceptor concentration after incubation ([7]; Well 2 / [acc], Well 2): 81.5 µM | acceptor concentration after incubation ([7]; Well 3 / [acc], Well 3): 79.5 µM | acceptor concentration after incubation ([7]; Well 4 / [acc], Well 4): 78.8 µM | acceptor concentration after incubation ([7]; Well 5 / [acc], Well 5): 81.8 µM | Δ % diffusion [8]: ↑5%
